# From article PMC10492782, “Exploiting the aggregation propensity of beta-lactamases to design inhibitors that induce enzyme misfolding” (Nature Communications, 2023)
# Where “and” joins values, the source holds several entries; their conditions need not be identical. Identical values can stand only once. Counter-ions that a name gives are not always drawn.
# Tests used:
# TEM-1 [1] = target: T1, TEM-1 (Escherichia coli, UniProt P62593); assay type: biochemical
# Description: To satisfy the reviewer’s comment, we have performed urea denaturation in the presence
# of a molar excess of tazobactam and compared it to the condition without.
# two-state denaturation of the protein with a stable intermediate. The difference between
# The plots show a single repeat.
# Table 1: Results from fitting 3 replicates
# G1 (kcal/mol) G2 (kcal/mol) Sum
# [2] = system: uro-pathogenic E. coli strain (UPEC strain blaTEM-1); test: MIC of ampicillin with or without 32 µg/mL TEM3.2 or tazobactam; assay type: cell-based, Escherichia coli; details: 32 μg/mL of either TEM3.2 or tazobactam
# Procedure: (§1) We also performed a tolerability study using a dose escalation method by administering the peptide at 2, 5, 10, 15, and 20 mg/kg via different parenteral routes: intravenous (IV), intraperitoneal (IP), and subcutaneous (SC) in female C57BL/6JAX mice, aged 8–10 weeks (Suppl Table 4). […] Vehicle alone (0.9% NaCl) was also administered (IV). After 24 h the animals were sacrificed and the bacterial load in the bladder, kidney, and ureter was quantified by determining the number of colony-forming units (CFU) per mL of tissue extract (Fig. 7E–G).
# Determination of MIC values was performed using the broth microdilution method according to the EUCAST guideline, which was performed in 96-well polystyrene flat-bottom microtiter plates (BD Biosciences). Briefly, a single colony was inoculated into 5 mL Difco™ Mueller–Hinton Broth (BD Biosciences Ref 275730) and grown to the end-exponential growth phase in a shaking incubator at 37 °C. Cultures were subsequently diluted to a MacFarland (0.5 optical density) to reach 10^6 CFU/mL in fresh MHB medium. 50 µl of different concentrations of peptides ranging from 128 to 2 µg/mL were serially diluted to the sterile 96-well plate in MHB. 50 µL of the diluted bacteria in MHB were next pipetted into 96-well plates to reach the final volume of 100 µL. The bacteria grown with the maximum concentration of carrier and medium were considered positive and negative controls, respectively. The plates were statically incubated overnight at 37 °C to allow bacterial growth. OD was measured at 590 nm using a multipurpose ultraviolet–visible plate reader, and the absorbance of the bacterial growth was measured using an absorbance reader.
# E. coli strain UZ_TEM104 = test: microbe, parasite or virus in culture; assay type: cell-based, Escherichia coli
# TEM-1 [3] = target: T1, TEM-1; assay type: biochemical, E. coli; design: His-tag (N); TEV cleavage site (N); made in house; host or cells: E. coli BL21 (DE3)
# Description: Then, we performed a thermal denaturation whilst simultaneously monitoring the intrinsic fluorescence as a measure of the folding status of the molecule (Fig. 1D and Supplementary Fig. 2D) and the static light scattering as a measure of aggregation (Fig. 1E and Supplementary Fig. 2E).
# D Heat denaturation of TEM-1 monitored by intrinsic fluorescence plotted as the BaryCentric Mean (BCM) of the fluorescence emission spectrum in the presence (red) and absence (blue) of tazobactam. […] E Temperature-dependent evolution of the Right-Angle Light Scattering (RALS) intensity measured simultaneously with the data in D to monitor protein aggregation. […] F Same data as in E, but showing a dose-titration of the beta-lactamase inhibitor tazobactam.
# SHV-11 = target: T2, SHV-11 (Klebsiella pneumoniae, UniProt P0AD64, L31Q); test: Thermal denaturation, Right-Angle Light Scattering (aggregation); assay type: biochemical; details: excess of tazobactam; less marked than for TEM-1
# T2 construct: His-tag (N); TEV cleavage site (N); made in house; host or cells: E. coli BL21 (DE3)
# [4] = system: uro-pathogenic E. coli strain (UPEC strain blaTEM-1); test: Urinary tract infection model, bacterial load in bladder, kidney, ureter; assay type: in vivo, female C57BL/6JAX mice; design: bacterial load, Ureters / bacterial load, Bladder / bacterial load, Kindey: unit: CFU per mL of tissue extract
# Procedure: Fig. 7 Evaluation of in vivo use of peptides that induce the aggregation of TEM beta-lactamase. A Lysis of human erythrocytes (hemolysis) was assessed in the presence of the indicated concentrations of TEM3.2 for 2 h at 37 °C, and normalized to the value obtained with 1% of the detergent triton. […] B Cell viability using the CellTiter Blue assay of HeLa cells treated for 24 h with the indicated concentrations TEM 3.2 at 37 °C. […] DAPI (4’,6-diamidino-2-phenylindole) is blue, while CellMask is red. D Experimental workflow of the in vivo model used in this study. E–G Bacterial load of indicated organs of female C57BL/6JAX mice with a urinary tract infection with E. coli strain UZ_TEM104, treated with 30 mg/kg penicillin (oral) as well 10 mg/kg tazobactam (oral) or 10 mg/kg TEM3.2 via the indicated treatment route. IV intravenous, IP intraperitoneal, SC subcutaneously. The data shown is from a single experiment with 12 animals for each group. The result for each animal is shown as a dot. […] The statistically significant differences were determined using ANOVA, followed by Dunnett’s multiple comparison test. […] Source data are provided as a Source Data file.
# as §1
# To test the efficacy of the peptides, a urinary tract infection model was performed as described previously. Briefly, female C57BL/6Jax mice female mice were deprived of water for at least 1 h. Then, they were anesthetized by IP administration of the mixture of ketamine (Nimatek)/xylazine (XYL-M 2% BE-V170581). The bladder of the mouse was massaged with fingers and pushed down gently to expel the remaining urine. Mice were slowly inoculated urethrally with 50 µL of a bacterial suspension slowly over 5 s to avoid vesicoureteral reflux (10^8 CFU/ mouse) using a sterile catheter (pediatric intravenous-access cannula (GS391350)). The catheter was removed directly after inoculation. After surgery, the animals were visually monitored for full recovery. After 1 h post inoculation, all mice received Ampicillin (30 mg/kg_PO-orally) and at the same time 3 groups of animals received the peptides via different administration routes (10 mg/kg_IV—intravenous; IP—intraperitoneal or SC—sub-cutaneous) and the positive control groups received tazobactam (10 mg/kg, PO). The negative control groups received vehicle or saline (IV administration). 2 h post inoculation, all mice received a second injection with the same concentration of each treatment as explained above. Twenty-four hours post-infection, mice were sacrificed and organs (kidney, bladder, ureter) were washed with PBS and were homogenized (Thermo Savant FastPrep FP120 Homogenizer/24 s). The homogenized tissues were serially diluted and cultured on blood agar plates. The plates were incubated overnight at 37 °C, and the number of bacteria was measured by CFU value.
# [5] = group Tazo, each column one mouse
# T1 sequence (P62593 24-286 limits assumed): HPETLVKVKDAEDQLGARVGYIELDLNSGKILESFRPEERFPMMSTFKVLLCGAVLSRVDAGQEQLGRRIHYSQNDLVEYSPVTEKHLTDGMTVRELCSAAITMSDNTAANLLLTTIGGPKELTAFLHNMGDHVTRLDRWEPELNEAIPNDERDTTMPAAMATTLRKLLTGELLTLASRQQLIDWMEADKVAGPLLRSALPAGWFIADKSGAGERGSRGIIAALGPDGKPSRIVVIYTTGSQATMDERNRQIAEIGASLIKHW
# T2 sequence (P0AD64 22-286 L31Q): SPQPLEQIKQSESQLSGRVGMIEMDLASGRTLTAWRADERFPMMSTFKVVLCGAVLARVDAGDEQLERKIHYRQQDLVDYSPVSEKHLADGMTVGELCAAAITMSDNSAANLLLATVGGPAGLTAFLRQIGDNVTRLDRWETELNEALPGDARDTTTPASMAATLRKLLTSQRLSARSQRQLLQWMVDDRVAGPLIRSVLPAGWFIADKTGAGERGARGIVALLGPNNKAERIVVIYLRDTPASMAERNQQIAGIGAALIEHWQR
structure (smiles),measurement,setting,value
"C[C@]1(Cn2ccnn2)[C@H](C(=O)O)N2C(=O)C[C@H]2S1(=O)=O [Tazobactam, tazobactam sodium salt]",Sum,"TEM-1 [1]; G1 + G2, with molar excess of tazobactam (no tazo 10.40)",10.28 kcal/mol
same,G2,"TEM-1 [1]; urea denaturation of TEM-1 with molar excess of tazobactam, 3-state fit, 3 replicates (no tazo 5.00)",4.03 kcal/mol
same,G1,"TEM-1 [1]; urea denaturation of TEM-1 with molar excess of tazobactam, 3-state fit, 3 replicates (no tazo 5.40)",6.25 kcal/mol
same,MIC Ampicillin in the presence of additive,[2],25 µg/mL
same,MIC penicillin,"E. coli strain UZ_TEM104; E. coli UZ_TEM104, concentration of additive 50 (mg/mL [sic])",400000 µg/mL
same,fold reduction of the MIC of penicillin G,E. coli strain UZ_TEM104; additive at 50 μg/mL,4 fold
same,MIC penicillin,E. coli strain UZ_TEM104; in the presence of additive (peptide or tazobactam) at fixed 50 μg/mL,400 µg/mL
same,effect on aggregation of TEM-1 during thermal denaturation (in words),"TEM-1 [3]; excess of tazobactam, more marked for TEM-1 than SHV-11",a decrease in the aggregation of the protein
same,"effect on aggregation of TEM-1, dose-response (in words)","TEM-1 [3]; static light scattering during temperature ramp, inhibitor titration",reduce the aggregation of the enzyme in a dose-responsive manner
same,effect on aggregation of SHV-11 during thermal denaturation (in words),SHV-11,a decrease in the aggregation of the protein
same,best reduction of the bacterial load,"[4]; 10 mg/kg plus 30 mg/kg Ampicillin orally at 60 and 120 min post-infection, CFU at 24 h, most robust in kidney and ureter",1.8 log folds
same,"bacterial load, Bladder",[4]; [5],26566.7 and 152667 and 97400 and 1 and 3700 and 1433.33 and 3000 and 1800 and 1966.67 and 316733 and 4266.67 and 3266.67
same,"bacterial load, Kindey",[4]; [5],24000 and 134000 and 72733.3 and 633.333 and 1 (3×) and 10200 and 2066.67 and 17700 and 9833.33 and 4600
same,"bacterial load, Ureters",[4]; [5],2433.33 and 54400 and 33133.3 and 133.333 and 166.667 and 1 (2×) and 1000 and 800 and 11633.3 and 1900 and 1166.67
